The text below walks through data of ChEMBL document CHEMBL1153474, “Novel tricyclic antagonists of the prostaglandin D2 receptor DP2 with efficacy in a murine model of allergic rhinitis” (Bioorg Med Chem Lett, 2009).

Data set [1] deals with T1, Prostaglandin D2 receptor (Homo sapiens, UniProt Q13258).
T1 sequence (Q13258 whole entry): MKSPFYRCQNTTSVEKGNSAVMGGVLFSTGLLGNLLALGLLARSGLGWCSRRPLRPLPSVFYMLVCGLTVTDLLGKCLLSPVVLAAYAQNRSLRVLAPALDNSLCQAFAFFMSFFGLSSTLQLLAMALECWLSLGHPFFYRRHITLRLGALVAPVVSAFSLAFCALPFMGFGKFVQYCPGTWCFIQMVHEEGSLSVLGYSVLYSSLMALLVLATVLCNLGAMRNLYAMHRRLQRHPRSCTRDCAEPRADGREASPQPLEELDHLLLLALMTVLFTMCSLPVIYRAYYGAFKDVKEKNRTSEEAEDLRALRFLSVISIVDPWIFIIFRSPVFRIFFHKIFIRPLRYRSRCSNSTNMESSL
Description: Displacement of [3H]PGD2 from […] in human platelet membrane. The class given is cell membranes.

The target in another data set is Prostacyclin receptor (Homo sapiens, UniProt P43119). Description: Displacement of [3H]iloprost from human prostacyclin receptor expressed in human 293 cell membrane. The class given is cell membranes. A general note: Loss of bound radioactivity is the signal in a displacement assay; it reports binding, not function.
Sequence of Prostacyclin receptor (P43119 whole entry): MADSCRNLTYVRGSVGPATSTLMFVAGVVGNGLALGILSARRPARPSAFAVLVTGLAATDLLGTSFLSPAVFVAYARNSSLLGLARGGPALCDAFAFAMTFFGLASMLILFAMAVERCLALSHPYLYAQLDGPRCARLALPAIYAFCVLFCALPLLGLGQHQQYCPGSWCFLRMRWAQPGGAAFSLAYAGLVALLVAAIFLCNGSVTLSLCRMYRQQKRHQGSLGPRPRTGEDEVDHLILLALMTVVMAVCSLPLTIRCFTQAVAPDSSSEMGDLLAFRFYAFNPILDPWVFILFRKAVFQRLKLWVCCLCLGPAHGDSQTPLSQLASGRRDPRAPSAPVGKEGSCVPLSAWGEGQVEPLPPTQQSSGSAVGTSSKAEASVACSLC
Another data set deals with Cytochrome P450 2D6 (Homo sapiens, UniProt P10635). In words: Inhibition of human CYP2D6. The format is ADME.
Sequence of Cytochrome P450 2D6 (P10635 whole entry): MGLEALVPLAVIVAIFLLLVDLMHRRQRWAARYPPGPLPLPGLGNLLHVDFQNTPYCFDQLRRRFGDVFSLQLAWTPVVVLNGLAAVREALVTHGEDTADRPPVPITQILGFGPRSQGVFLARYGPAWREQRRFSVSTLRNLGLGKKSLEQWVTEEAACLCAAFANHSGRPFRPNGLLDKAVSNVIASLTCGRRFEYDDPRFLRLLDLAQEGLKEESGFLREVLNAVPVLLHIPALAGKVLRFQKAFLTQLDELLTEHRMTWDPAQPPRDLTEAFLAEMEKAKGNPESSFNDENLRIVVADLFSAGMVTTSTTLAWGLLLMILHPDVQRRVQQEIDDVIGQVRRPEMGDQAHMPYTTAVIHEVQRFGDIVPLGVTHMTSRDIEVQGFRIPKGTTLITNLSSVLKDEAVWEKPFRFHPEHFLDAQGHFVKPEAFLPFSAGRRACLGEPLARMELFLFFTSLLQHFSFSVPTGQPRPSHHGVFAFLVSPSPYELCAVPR
For data set [2], the target named is T2, Prostaglandin D2 receptor 2 (Homo sapiens, UniProt Q9Y5Y4).
T2 sequence (Q9Y5Y4 whole entry): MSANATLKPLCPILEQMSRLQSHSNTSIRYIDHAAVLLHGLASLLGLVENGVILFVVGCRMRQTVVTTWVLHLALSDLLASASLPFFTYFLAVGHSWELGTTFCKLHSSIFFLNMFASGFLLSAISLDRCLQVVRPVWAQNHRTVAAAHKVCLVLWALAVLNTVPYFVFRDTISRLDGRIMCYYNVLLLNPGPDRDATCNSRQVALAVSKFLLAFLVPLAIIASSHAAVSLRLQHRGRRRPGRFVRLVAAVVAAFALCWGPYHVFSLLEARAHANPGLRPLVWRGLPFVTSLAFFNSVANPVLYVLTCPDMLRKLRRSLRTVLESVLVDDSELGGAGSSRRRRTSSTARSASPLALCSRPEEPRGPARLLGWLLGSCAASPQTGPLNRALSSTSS
In words: Displacement of [3H]PGD2 from human prostaglandin D2 receptor in presence of human serum albumin.

The target in a further data set is T3, Thromboxane A2 receptor (Homo sapiens, UniProt P21731).
T3 sequence (P21731 whole entry): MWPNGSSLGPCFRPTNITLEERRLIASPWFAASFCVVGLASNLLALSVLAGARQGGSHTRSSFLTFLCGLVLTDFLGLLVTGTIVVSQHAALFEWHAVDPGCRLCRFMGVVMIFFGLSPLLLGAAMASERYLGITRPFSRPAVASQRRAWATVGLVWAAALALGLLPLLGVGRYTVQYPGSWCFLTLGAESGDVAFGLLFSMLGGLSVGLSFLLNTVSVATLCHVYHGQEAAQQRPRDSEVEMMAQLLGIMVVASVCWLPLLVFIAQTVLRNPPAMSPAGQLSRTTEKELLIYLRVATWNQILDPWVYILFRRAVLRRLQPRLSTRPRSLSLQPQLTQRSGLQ
Description: Displacement of [3H]SQ-29548 from thromboxane receptor in human platelet membrane. The format is cell membranes.

Another data set relates to Blood. In words: Inhibition of eosinophil […] in human whole blood assessed as change in morphology after 4 mins using flow cytometry by leukocyte shape change assay. The class given is functional, tissue-based.
Data set [3] addresses T2, Prostaglandin D2 receptor 2. In words: Displacement of [3H]PGD2 from human prostaglandin D2 receptor.
For the next data set, the target named is Cytochrome P450 2C9 (Homo sapiens, UniProt P11712). Description: Inhibition of human CYP2C9. The class given is ADME.
Sequence of Cytochrome P450 2C9 (P11712 whole entry): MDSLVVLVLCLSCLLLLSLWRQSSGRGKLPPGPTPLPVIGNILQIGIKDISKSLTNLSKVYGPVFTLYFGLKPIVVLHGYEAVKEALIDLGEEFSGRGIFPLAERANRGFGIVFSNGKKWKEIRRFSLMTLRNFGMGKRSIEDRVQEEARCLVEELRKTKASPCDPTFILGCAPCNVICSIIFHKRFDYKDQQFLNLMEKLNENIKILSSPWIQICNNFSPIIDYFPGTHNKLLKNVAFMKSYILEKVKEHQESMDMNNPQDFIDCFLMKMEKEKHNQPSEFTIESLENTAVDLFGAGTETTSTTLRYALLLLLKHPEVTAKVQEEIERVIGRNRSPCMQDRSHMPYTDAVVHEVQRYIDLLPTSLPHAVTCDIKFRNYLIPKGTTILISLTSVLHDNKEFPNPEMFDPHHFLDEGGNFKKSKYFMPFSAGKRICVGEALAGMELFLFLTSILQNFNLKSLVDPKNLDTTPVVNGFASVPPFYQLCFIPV
The target in data set [4] is T4, Cytochrome P450 3A4 (Homo sapiens, UniProt P08684). In words: Induction of CYP3A4 activity in cryopreserved human hepatocytes at 10 uM using midazolam as substrate after 2 days relative to rifampicin. To be noted: 48 h.
T4 sequence (P08684 whole entry): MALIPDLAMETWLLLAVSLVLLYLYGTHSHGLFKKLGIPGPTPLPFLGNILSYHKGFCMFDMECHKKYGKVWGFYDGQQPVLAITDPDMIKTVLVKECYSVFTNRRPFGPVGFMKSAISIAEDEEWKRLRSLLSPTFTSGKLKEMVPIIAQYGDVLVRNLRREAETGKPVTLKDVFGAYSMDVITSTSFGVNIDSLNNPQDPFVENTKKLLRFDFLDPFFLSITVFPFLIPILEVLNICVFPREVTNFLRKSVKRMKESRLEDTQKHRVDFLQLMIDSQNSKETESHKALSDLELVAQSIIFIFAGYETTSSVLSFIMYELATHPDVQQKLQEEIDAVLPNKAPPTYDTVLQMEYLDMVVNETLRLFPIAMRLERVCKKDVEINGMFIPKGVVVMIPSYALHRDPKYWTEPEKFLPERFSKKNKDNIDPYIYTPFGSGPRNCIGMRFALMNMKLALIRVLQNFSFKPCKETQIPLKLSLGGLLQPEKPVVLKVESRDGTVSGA
Data set [5] deals with T4, Cytochrome P450 3A4. In words: Inhibition of human CYP3A4. The class given is ADME.
A short description of data set [6]: Cmax in BALB/c mouse at 10 mg/kg, po administered once daily for 3 days measured after 1 hr. The class given is ADME, organism-based. Set-up: dose 10 mg/kg, route oral. To be noted: in vivo.
Data set [7] relates to Mus musculus. Description: Reduction of ovalbumin-induced increase in sneezes in BALB/c mouse at 10 mg/kg, po once daily for 3 days administered 20 days after ip challenge with ovalbumin followed by intranasal ovalbumin challenge 1 hr post drug dose measured after 8 mins. The format is functional, organism-based. Further details: dose 10 mg/kg.
The test system of data set [8] is Mus musculus. In words: Reduction of ovalbumin-induced increase in nasal rubs in BALB/c mouse at 10 mg/kg, po once daily for 3 days administered 20 days after ip challenge with ovalbumin followed by intranasal ovalbumin challenge 1 hr post drug dose measured after 8 mins. The format is functional, organism-based. Further details: dose 10 mg/kg.
Data set [9] is described as follows: Cmin in BALB/c mouse at 10 mg/kg, po administered once daily for 3 days measured after 8 hrs. The format is ADME, organism-based. Set-up: dose 10 mg/kg, route oral. Conditions: in vivo, read-out: Cmin.

Structures are written as SMILES. Active and inactive are the calls of the source. The calls are words filed in the database; no cut-off is given here.

One may read the IC50 as the concentration that gives 50% inhibition. As to `O=C(O)CCn1c2c(c3ccccc31)C[C@H](NS(=O)(=O)c1ccc(F)cc1)CC2` [RAMATROBAN], the IC50 is 33.4 µM in data set [1]; above 100 µM at Prostacyclin receptor; above 30 µM at Cytochrome P450 2D6; 754 nM in data set [2]; 0.014 µM on Thromboxane A2 receptor; 1210 nM with Blood. Besides, the IC50 worked out at 311 nM in [3] and 15 µM against Cytochrome P450 2C9.

For `CN([C@@H]1CCc2c(CC(=O)O)c3ccccn3c2C1)S(=O)(=O)c1ccc(F)cc1`, the IC50 in data set [1] was 4.4 µM; on Prostacyclin receptor, above 100 µM; at Cytochrome P450 2D6, above 30 µM; in data set [2], 46 nM; on Thromboxane A2 receptor it was above 100 µM; in the data set on Blood, 6 nM. Besides, the IC50 is 18 nM in data set [3], 17 µM on Cytochrome P450 2C9 and above 30 µM at Cytochrome P450 3A4 [5]. The same molecule gave an Activity at Cytochrome P450 3A4 [4] of 0.9%.

Consider `CN(C)c1nc(Cc2ccc(NC(=O)c3ccc(C(F)(F)F)cc3)cc2)nc(N(C)C)c1CC(=O)O` [BI-671800], for which the IC50 in data set [1] was 25.6 µM; on Prostacyclin receptor, above 100 µM; at Cytochrome P450 2D6, above 30 µM; in [2] it was 744 nM; on Thromboxane A2 receptor, 62.6 µM; with Blood, 744 nM. Besides, the IC50 in [3] is 42 nM; against Cytochrome P450 2C9, above 30 µM. This molecule also yielded an Activity on Cytochrome P450 3A4 [4] of 0.4%.

As to `CN([C@@H]1CCc2c(c3nccnc3n2CC(=O)O)C1)S(=O)(=O)c1ccc(F)cc1`, the IC50 in [1] is 37.8 µM; at Prostacyclin receptor, above 100 µM; on Cytochrome P450 2D6 it was above 30 µM; in data set [2], 127 nM; on Thromboxane A2 receptor, above 100 µM; with Blood it was 140 nM. Also, the IC50 in data set [3] is 96 nM; against Cytochrome P450 2C9, 15 µM; against Cytochrome P450 3A4 [5], above 30 µM. This molecule returned an Activity on Cytochrome P450 3A4 [4] of 0.9%.

Turning to `CN([C@@H]1CCc2c(c3ccccn3c2CC(=O)O)C1)S(=O)(=O)c1ccc(F)cc1`, the IC50 is 31 µM in [1]; above 100 µM at Prostacyclin receptor; above 30 µM against Cytochrome P450 2D6; 61 nM in [2]; 16 nM with Blood; 94 nM in data set [3]. Besides, the values for the IC50 on Cytochrome P450 2C9 and against Cytochrome P450 3A4 [5] were 10 µM and 11 µM, respectively.

`CN([C@@H]1CCc2c(c3cccnc3n2CC(=O)O)C1)S(=O)(=O)c1ccc(F)cc1`: the IC50 in data set [1] was 9 µM; at Prostacyclin receptor, above 100 µM; at Cytochrome P450 2D6, above 30 µM; in data set [2], 1340 nM; at Thromboxane A2 receptor it was above 100 µM; in the data set with Blood, 3100 nM. The values for the half-inhibitory concentration (IC50) (in [3]; against Cytochrome P450 2C9; on Cytochrome P450 3A4 [5]) were 457 nM, above 30 µM and above 30 µM, respectively. In addition, at Cytochrome P450 3A4 [4], the Activity came to 2.8%.

On to `CN([C@@H]1CCc2c(c3ccncc3n2CC(=O)O)C1)S(=O)(=O)c1ccc(F)cc1`, for which the IC50 was above 100 µM in data set [1]; above 100 µM on Prostacyclin receptor; above 30 µM against Cytochrome P450 2D6; 940 nM in data set [2]; above 100 µM at Thromboxane A2 receptor; 452 nM in the data set on Blood. Besides, the IC50 is 860 nM in data set [3], above 30 µM on Cytochrome P450 2C9 and above 30 µM at Cytochrome P450 3A4 [5]. Further, the Activity on Cytochrome P450 3A4 [4] stood at 0.4%.

As to `CN([C@@H]1CCC2=C(C1)C1C=CC=CC1N2CC(=O)O)S(=O)(=O)c1ccc(F)cc1` (stereo partly specified), the IC50 in data set [1] was 2.2 µM; on Prostacyclin receptor it was above 100 µM; against Cytochrome P450 2D6 it was above 30 µM; in data set [2] it was 4 nM; at Thromboxane A2 receptor, above 100 µM; in the data set on Blood, 1 nM. The IC50 is 1 nM in [3], 18 µM against Cytochrome P450 2C9 and above 30 µM at Cytochrome P450 3A4 [5]. Moreover, the Activity at Cytochrome P450 3A4 [4] was determined as 30.8%.

Regarding `Cc1c(Cc2ccc3ccccc3n2)c2cc(F)ccc2n1CC(=O)O` [TIMAPIPRANT], the half-inhibitory concentration (IC50) was 7.3 µM in data set [1]; 57.9 µM on Prostacyclin receptor; above 30 µM against Cytochrome P450 2D6; above 100 µM at Thromboxane A2 receptor; 261 nM with Blood; above 30 µM against Cytochrome P450 2C9. At Cytochrome P450 3A4 [4], this molecule had an Activity of 58.8%.

In the case of `CN([C@@H]1CCc2c(CC(=O)O)c3ccccc3n2C1)S(=O)(=O)c1ccc(F)cc1` [MK-7246], the IC50 is 1 µM in data set [1]; above 100 µM on Prostacyclin receptor; above 30 µM at Cytochrome P450 2D6; 20 nM in data set [2]; above 100 µM at Thromboxane A2 receptor; 7 nM in the data set with Blood. Moreover, the IC50 in data set [3] was 6 nM; against Cytochrome P450 2C9, 5 µM; on Cytochrome P450 3A4 [5] it was 7 µM. Further, the Activity on Cytochrome P450 3A4 [4] stood at 0.7%.

Turning to `CN([C@@H]1CCc2c(CC(=O)O)c3ncccc3n2C1)S(=O)(=O)c1ccc(F)cc1`, the IC50 in [1] was 41.7 µM; on Prostacyclin receptor, above 100 µM; on Cytochrome P450 2D6, above 30 µM; in data set [2] it was 51000 nM; at Thromboxane A2 receptor, above 100 µM; in the data set on Blood it was 41600 nM. The IC50 in data set [3] was 24900 nM; on Cytochrome P450 2C9 it was above 30 µM; at Cytochrome P450 3A4 [5] it was above 30 µM. Also, on Cytochrome P450 3A4 [4], the Activity is given as 0.9%.

For orientation: Cmax means the maximum level reached in the sampled fluid or tissue. Regarding `CN([C@@H]1CCc2c(c3ncccc3n2CC(=O)O)C1)S(=O)(=O)c1ccc(F)cc1`, the half-maximal inhibitory concentration (IC50) is above 100 µM in data set [1]; above 100 µM on Prostacyclin receptor; above 30 µM on Cytochrome P450 2D6; 11 nM in [2]; above 100 µM at Thromboxane A2 receptor; 1 nM in the data set on Blood. Further, the IC50 in data set [3] is 6 nM; at Cytochrome P450 2C9, above 30 µM; on Cytochrome P450 3A4 [5], above 30 µM. In [6], this molecule displayed a Cmax of 770 nM. The outcome in the data set with Mus musculus [7] and in the data set with Mus musculus [8] was Active. In [9], the concentration at 8 h came to 120 nM. The molecule also came in with an Activity on Cytochrome P450 3A4 [4] of 2.8%.
